# Laboratory results from DBAASP.
# How the values were obtained:
# Assay in all cases: ≥ marks a high value that may be exact or a test limit, other limits are often not marked, values filed in µg/mL are converted to µM
# [1] = test system: Pseudomonas aeruginosa ATCC 27853
# [2] = test system: Enterococcus faecalis NCTC 12697
# [3] = test system: Klebsiella pneumoniae ATCC 43816
# [4] = test system: Staphylococcus aureus NCTC 12493
# [5] = test system: Staphylococcus aureus NCTC 10788
# [6] = test system: Candida albicans NCYC 1467
# [7] = test system: Escherichia coli NCTC 10418
# [8] = test system: Pectobacterium carotovorum subsp. carotovorum DSM 30168
# [9] = test system: Clavibacter michiganensis subsp. michiganensis DSM 46294
# [10] = test system: Xanthomonas vesicatoria DSM 50861
# [11] = test system: Pseudomonas syringae pv. syringae DSM 10604
# [12] = test system: Pseudomonas syringae pv. tomato DC3000
# [13] = test system: Pseudomonas corrugata DSM 7228
# [14] = test system: Staphylococcus aureus 90857
# [15] = test system: Pseudomonas aeruginosa Ps4
# [16] = test system: Staphylococcus aureus
# [17] = test system: Staphylococcus aureus ATCC 6538P
# [18] = test system: Escherichia coli JM109
compound,measurement,setting,value
CC[C@H](C)[C@H](NC(=O)[C@H](CCCCN)NC(=O)[C@H](CO)NC(=O)[C@H](Cc1c[nH]c2ccccc12)NC(=O)[C@H](CC(C)C)NC(=O)CN)C(=O)N[C@@H](CCCCN)C(=O)N[C@@H](CC(=O)O)C(=O)N[C@@H](C)C(=O)N[C@@H](C)C(=O)N[C@@H](CCCCN)C(=O)N[C@H](C(=O)N[C@@H](C)C(=O)NCC(=O)N[C@@H](CCCCN)C(=O)N[C@@H](C)C(=O)N[C@@H](C)C(=O)N[C@@H](CC(C)C)C(=O)NCC(=O)N[C@@H](Cc1ccccc1)C(=O)N[C@H](C(=O)N[C@@H](CC(N)=O)C(=O)N[C@@H](CCC(=O)O)C(=O)N[C@@H](CCSC)C(=O)N[C@H](C(N)=O)C(C)C)C(C)C)[C@@H](C)O [GLWSKIKDAAKTAGKAALGFVNEMV],MIC,[1],16 µM
same,MIC,[2],16 µM
same,MIC,[3],8 µM
same,MIC,[4],≥ 32 µM
same,MIC,[5],16 µM
same,MIC,[6],≥ 64 µM
same,MIC,[7],8 µM
CC[C@H](C)[C@H](NC(=O)[C@H](C)NC(=O)[C@H](CC(C)C)NC(=O)[C@H](CCCN=C(N)N)NC(=O)[C@H](CC(C)C)NC(=O)[C@@H](NC(=O)[C@H](CCCN=C(N)N)NC(=O)[C@H](CC(C)C)NC(=O)[C@@H](NC(=O)[C@H](CC(C)C)NC(=O)[C@H](CCCN=C(N)N)NC(=O)[C@H](CCCN=C(N)N)NC(=O)[C@@H](N)CCCCN)[C@@H](C)CC)[C@@H](C)CC)C(=O)N[C@@H](CCCN=C(N)N)C(=O)N[C@@H](C)C(=O)N[C@@H](CC(C)C)C(=O)N[C@H](C(=O)N[C@@H](CCCCN)C(=O)N[C@@H](CCCCN)C(=O)N[C@@H](CCCN=C(N)N)C(N)=O)C(C)C [KRRLILRILRLAIRALVKKR],MIC,[8],4.02 µM
same,MIC,[9],0.101 µM
same,MIC,[10],0.101 µM
same,MIC,[11],2.01 µM
same,MIC,[12],4.02 µM
same,MIC,[13],2.01 µM
same,MIC,[14],4 µM
NC(=O)[C@H](CCCN=C(N)N)NC(=O)[C@H](Cc1c[nH]c2ccccc12)NC(=O)[C@H](CCCN=C(N)N)NC(=O)[C@H](Cc1c[nH]c2ccccc12)NC(=O)[C@H](CCCN=C(N)N)NC(=O)[C@H](Cc1c[nH]c2ccccc12)NC(=O)[C@@H](N)Cc1ccccc1 [FWRWRWR],MIC,[15],≥ 52.4 µM
CC[C@H](C)[C@H](NC(=O)[C@H](CC(N)=O)NC(=O)[C@H](CCCN=C(N)N)NC(=O)[C@H](CCC(N)=O)NC(=O)[C@H](Cc1c[nH]c2ccccc12)NC(=O)[C@@H](N)Cc1ccccc1)C(=O)N[C@@H](CCCN=C(N)N)C(=O)N[C@@H](CCCCN)C(=O)N[C@@H](Cc1ccccc1)C(=O)N[C@@H](CCCN=C(N)N)C(N)=O [FWQRNIRKFR],MIC,[15],≥ 172 µM
CC[C@H](C)[C@H](NC(=O)[C@H](C)NC(=O)[C@H](CO)NC(=O)[C@@H](NC(=O)[C@H](C)NC(=O)[C@H](CCCCN)NC(=O)[C@@H]1CCCN1C(=O)[C@@H](NC(=O)[C@H](CC(C)C)NC(=O)[C@H](CO)NC(=O)[C@H](CC(C)C)NC(=O)[C@@H](N)Cc1ccccc1)[C@@H](C)CC)[C@@H](C)CC)C(=O)N[C@@H](CO)C(=O)N[C@@H](C)C(=O)N[C@@H](CC(C)C)C(=O)N[C@H](C(=O)N[C@@H](CC(N)=O)C(=O)N[C@@H](Cc1cnc[nH]1)C(=O)N[C@@H](Cc1ccccc1)C(N)=O)[C@@H](C)CC [FLSLIPKAISAISALINHF],MIC,[1],> 512 µM
same,MIC,[2],≥ 32 µM
same,MIC,[3],≥ 512 µM
same,MIC,[4],≥ 32 µM
same,MIC,[5],2 µM
same,MIC,[6],4 µM
same,MIC,[7],≥ 512 µM
CC(C)[C@H](NC(=O)[C@H](CCCCN)NC(=O)[C@H](CCCN=C(N)N)NC(=O)[C@H](Cc1ccccc1)NC(=O)[C@H](CC(N)=O)NC(=O)[C@H](CCCN=C(N)N)NC(=O)[C@H](CCC(N)=O)NC(=O)[C@H](Cc1c[nH]c2ccccc12)NC(=O)[C@@H](N)Cc1ccccc1)C(=O)N[C@@H](CCCN=C(N)N)C(N)=O [FWQRNFRKVR],MIC,[15],≥ 174 µM
CC(C)C[C@H](NC(=O)[C@H](Cc1ccccc1)NC(=O)[C@H](CC(C)C)NC(=O)[C@H](CCCN=C(N)N)NC(=O)[C@H](CC(C)C)NC(=O)[C@H](Cc1ccccc1)NC(=O)[C@H](CC(C)C)NC(=O)[C@H](CCCN=C(N)N)NC(=O)[C@H](Cc1ccccc1)NC(=O)[C@H](CC(C)C)NC(=O)[C@H](CCCN=C(N)N)NC(=O)[C@H](Cc1ccccc1)NC(=O)[C@H](CC(C)C)NC(=O)[C@H](Cc1ccccc1)NC(=O)[C@H](CC(C)C)NC(=O)[C@H](CCCN=C(N)N)NC(=O)[C@H](CCCN=C(N)N)NC(=O)[C@@H](N)CCCCN)C(=O)N[C@@H](CCCCN)C(=O)N[C@@H](CCCCN)C(N)=O [KRRLFLFRLFRLFLRLFLKK],MIC,[8],3.69 µM
same,MIC,[9],0.922 µM
same,MIC,[10],0.922 µM
same,MIC,[11],3.69 µM
same,MIC,[12],1.84 µM
same,MIC,[13],3.69 µM
same,MIC,[14],4 µM
CC[C@H](C)[C@H](NC(=O)[C@H](CCCN=C(N)N)NC(=O)[C@H](CCCN=C(N)N)NC(=O)[C@H](CC(C)C)NC(=O)[C@H](Cc1ccccc1)NC(=O)[C@H](CCCN=C(N)N)NC(=O)[C@@H](N)CC(C)C)C(=O)N[C@@H](CC(C)C)C(=O)N[C@@H](CCCN=C(N)N)C(=O)N[C@@H](CCCN=C(N)N)C(=O)N[C@@H](CC(C)C)C(=O)N[C@@H](CC(C)C)C(N)=O [LRFLRRILRRLL],MIC,[8],1.54 µM
same,MIC,[9],0.308 µM
same,MIC,[10],0.308 µM
same,MIC,[11],0.308 µM
same,MIC,[12],0.615 µM
same,MIC,[13],0.308 µM
same,MIC,[14],0.625 µM
CC[C@H](C)[C@H](NC(=O)[C@H](C)NC(=O)[C@H](CC(C)C)NC(=O)[C@H](CS)NC(=O)[C@H](Cc1cnc[nH]1)NC(=O)[C@H](C)NC(=O)[C@H](C)NC(=O)[C@H](CS)NC(=O)[C@@H](N)CC(C)C)C(=O)N[C@@H](CCCN=C(N)N)C(=O)N[C@@H](CCCN=C(N)N)C(=O)N[C@@H](CCCN=C(N)N)C(N)=O [LCAAHCLAIRRR],MIC,[16],> 46.3 µM
same,MIC,[17],5.42 µM
same,MIC,[18],17.4 µM
CC(C)C[C@H](NC(=O)[C@H](CCCN=C(N)N)NC(=O)[C@H](CCCCN)NC(=O)[C@H](CCCCN)NC(=O)[C@@H](N)CCCN=C(N)N)C(=O)N[C@@H](CCCCN)C(=O)N[C@H](C(=O)N[C@H](C(=O)N[C@@H](CCCCN)C(=O)N[C@@H](CCCN=C(N)N)C(=O)N[C@@H](CC(C)C)C(=O)N[C@H](C(N)=O)C(C)C)C(C)C)C(C)C [RKKRLKVVKRLV],MIC,[8],6.57 µM
same,MIC,[9],6.57 µM
same,MIC,[10],6.57 µM
same,MIC,[11],3.28 µM
same,MIC,[12],1.64 µM
same,MIC,[13],6.57 µM
same,MIC,[14],≥ 62.5 µM
CC[C@H](C)[C@H](NC(=O)[C@H](CC(N)=O)NC(=O)[C@H](CCCN=C(N)N)NC(=O)[C@H](CCC(N)=O)NC(=O)[C@H](Cc1c[nH]c2ccccc12)NC(=O)[C@@H](N)Cc1ccccc1)C(=O)N[C@@H](CCCCN)C(=O)N[C@H](C(=O)N[C@@H](CCCN=C(N)N)C(N)=O)C(C)C [FWQRNIKVR],MIC,[15],≥ 201 µM
CC[C@H](C)[C@H](NC(=O)[C@H](C)NC(=O)[C@H](C)NC(=O)[C@@H]1CCCN1C(=O)[C@@H](NC(=O)[C@H](CC(C)C)NC(=O)[C@H](CCCCN)NC(=O)CNC(=O)[C@H](C)NC(=O)[C@H](CS)NC(=O)[C@H](CCCCN)NC(=O)[C@H](CCCCN)NC(=O)[C@H](CO)NC(=O)[C@@H](NC(=O)[C@H](CCCCN)NC(=O)[C@H](CS)NC(=O)[C@@H](NC(=O)[C@H](CCCCN)NC(=O)[C@H](CC(C)C)NC(=O)[C@@H](NC(=O)[C@H](C)NC(=O)CNC(=O)[C@H](CC(C)C)NC(=O)[C@@H](N)Cc1ccccc1)C(C)C)C(C)C)[C@@H](C)CC)C(C)C)C(=O)O [FLGAVLKVCKISKKCAGKLVPAAI],MIC,[1],128 µM
same,MIC,[2],≥ 128 µM
same,MIC,[3],≥ 256 µM
same,MIC,[4],≥ 128 µM
same,MIC,[5],≥ 32 µM
same,MIC,[6],≥ 128 µM
same,MIC,[7],16 µM
CC[C@H](C)[C@H](NC(=O)[C@H](CC(N)=O)NC(=O)[C@H](CCCN=C(N)N)NC(=O)[C@H](CCC(N)=O)NC(=O)[C@H](Cc1c[nH]c2ccccc12)NC(=O)[C@@H](N)Cc1ccccc1)C(=O)N[C@@H](CCCN=C(N)N)C(=O)N[C@@H](CCCCN)C(=O)N[C@H](C(=O)N[C@@H](CCCCN)C(=O)N[C@@H](CCCCN)C(=O)N[C@@H](CCCCN)C(=O)N[C@@H](CCCCN)C(N)=O)C(C)C [FWQRNIRKVKKKK],MIC,[15],≥ 142 µM
NC(=O)C[C@H](NC(=O)[C@H](CCCN=C(N)N)NC(=O)[C@H](CCCN=C(N)N)NC(=O)[C@H](Cc1c[nH]c2ccccc12)NC(=O)[C@@H](N)Cc1ccccc1)C(=O)N[C@@H](Cc1ccccc1)C(=O)N[C@@H](Cc1c[nH]c2ccccc12)C(=O)N[C@@H](CCCN=C(N)N)C(=O)N[C@@H](CCCN=C(N)N)C(N)=O [FWRRNFWRR],MIC,[15],≥ 176 µM
